Results: ChEMBL document CHEMBL1201862, “PubChem BioAssay data set” (2004)
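Values below derive from 48-hour exposures of cells grown in 96-well plates, with endpoints linearly interpolated between the two concentrations bracketing the appropriate inhibition level. GI50: concentration for 50% inhibition of growth.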 Calls of active or inactive are those of the source. Rule as the data show it: active = GI50 up to about 1.1 µM and inactive = higher.

Experiments:
Assay in all cases: NCI tumour cell line growth inhibition, 48 h
[1] = tested on: 786-0
[2] = tested on: A498
[3] = tested on: A549
[4] = tested on: ACHN
[5] = tested on: BT-549
[6] = tested on: CAKI-1
[7] = tested on: COLO 205
[8] = tested on: DU-145
[9] = tested on: EKVX
[10] = tested on: HCC 2998
[11] = tested on: HCT-116
[12] = tested on: HCT-15
[13] = tested on: HOP-62
[14] = tested on: HOP-92
[15] = tested on: HT-29
[16] = tested on: Hs-578T
[17] = tested on: IGROV-1
[18] = tested on: K562
[19] = tested on: KM12
[20] = tested on: LOX IMVI
[21] = tested on: M14
[22] = tested on: MCF7
[23] = tested on: MDA-MB-231
[24] = tested on: MDA-MB-435
[25] = tested on: MDA-N
[26] = tested on: MOLT-4
[27] = tested on: Malme-3M
[28] = tested on: NCI-H226
[29] = tested on: NCI-H23
[30] = tested on: NCI-H460
[31] = tested on: NCI-H522
[32] = tested on: NCI/ADR-RES
[33] = tested on: OVCAR-3
[34] = tested on: OVCAR-4
[35] = tested on: OVCAR-5
[36] = tested on: OVCAR-8
[37] = tested on: PC-3
[38] = tested on: RPMI-8226
[39] = tested on: RXF 393
[40] = tested on: SF-268
[41] = tested on: SF-295
[42] = tested on: SF-539
[43] = tested on: SK-MEL-2
[44] = tested on: SK-MEL-5
[45] = tested on: SK-OV-3
[46] = tested on: SN12C
[47] = tested on: SNB-19
[48] = tested on: SNB-75
[49] = tested on: T47D
[50] = tested on: TK-10
[51] = tested on: U-251
[52] = tested on: UACC-257
[53] = tested on: UACC-62
[54] = tested on: UO-31
[55] = tested on: CCRF-CEM
[56] = tested on: HL-60
[57] = tested on: SK-MEL-28
[58] = tested on: SW-620
[59] = tested on: SR

Cc1c2c(OCC3CCCCO3)nn(C)c(=O)c2c(C)n1-c1ccccc1 (centres undefined)
GI50 [1]: 17.2 µM (inactive)
GI50 [2]: 14.9 µM (inactive)
GI50 [3]: 17.5 µM (inactive)
GI50 [4]: 16.5 µM (inactive)
GI50 [5]: 19.7 µM (inactive)
GI50 [6]: 21.5 µM (inactive)
GI50 [7]: 17.4 µM (inactive)
GI50 [8]: 17.7 µM (inactive)
GI50 [9]: 17.1 µM (inactive)
GI50 [10]: 15.3 µM (inactive)
GI50 [11]: 17 µM (inactive)
GI50 [12]: 17.1 µM
GI50 [13]: 19.2 µM (inactive)
GI50 [14]: 18 µM (inactive)
GI50 [15]: 31.6 µM (inactive)
GI50 [16]: 21.2 µM (inactive)
GI50 [17]: 18.4 µM (inactive)
GI50 [18]: 38.8 µM (inactive)
GI50 [19]: 18.6 µM (inactive)
GI50 [20]: 17.7 µM (inactive)
GI50 [21]: 19.1 µM (inactive)
GI50 [22]: 14.9 µM (inactive)
GI50 [23]: 17.7 µM (inactive)
GI50 [24]: 18.3 µM (inactive)
GI50 [25]: 19.5 µM (inactive)
GI50 [26]: 29 µM (inactive)
GI50 [27]: 18.7 µM (inactive)
GI50 [28]: 23.4 µM (inactive)
GI50 [29]: 20 µM (inactive)
GI50 [30]: 14.7 µM (inactive)
GI50 [31]: 17 µM (inactive)
GI50 [32]: 21.3 µM (inactive)
GI50 [33]: 16.7 µM (inactive)
GI50 [34]: 15.8 µM (inactive)
GI50 [35]: 17.4 µM (inactive)
GI50 [36]: 19.9 µM (inactive)
GI50 [37]: 19.7 µM (inactive)
GI50 [38]: 31.3 µM (inactive)
GI50 [39]: 16 µM (inactive)
GI50 [40]: 16.1 µM (inactive)
GI50 [41]: 16.5 µM (inactive)
GI50 [42]: 20 µM (inactive)
GI50 [43]: 24.1 µM (inactive)
GI50 [44]: 15.1 µM (inactive)
GI50 [45]: 18.3 µM (inactive)
GI50 [46]: 19.4 µM (inactive)
GI50 [47]: 21.7 µM (inactive)
GI50 [48]: 13 µM (inactive)
GI50 [49]: 22.1 µM (inactive)
GI50 [50]: 20.6 µM (inactive)
GI50 [51]: 17.4 µM (inactive)
GI50 [52]: 18.6 µM (inactive)
GI50 [53]: 16.4 µM (inactive)
GI50 [54]: 16.6 µM (inactive)

COc1ccc(NC(=S)c2ccoc2C)cc1CC(=O)OC(C)C
GI50 [1]: > 100 µM (inactive)
GI50 [3]: 26.4 µM (inactive)
GI50 [4]: 30.8 µM (inactive)
GI50 [5]: > 10 µM (inactive)
GI50 [6]: 29.2 µM (inactive)
GI50 [55]: 43.9 µM (inactive)
GI50 [7]: 17.7 µM (inactive)
GI50 [8]: 48.3 µM (inactive)
GI50 [9]: 25.1 µM (inactive)
GI50 [10]: 45.5 µM (inactive)
GI50 [11]: 55.8 µM (inactive)
GI50 [12]: 55.2 µM
GI50 [56]: 22.1 µM (inactive)
GI50 [14]: 20.6 µM (inactive)
GI50 [15]: 16.7 µM (inactive)
GI50 [16]: 45.2 µM (inactive)
GI50 [17]: 36 µM (inactive)
GI50 [18]: 34.8 µM (inactive)
GI50 [19]: 29.7 µM (inactive)
GI50 [20]: 18.8 µM (inactive)
GI50 [21]: 24.9 µM (inactive)
GI50 [22]: 22 µM (inactive)
GI50 [23]: 81.5 µM (inactive)
GI50 [24]: 46.2 µM (inactive)
GI50 [25]: 31 µM (inactive)
GI50 [26]: 18.8 µM (inactive)
GI50 [28]: 12.4 µM (inactive)
GI50 [29]: 46.2 µM (inactive)
GI50 [30]: 31.8 µM (inactive)
GI50 [31]: 36.3 µM (inactive)
GI50 [32]: 17.5 µM (inactive)
GI50 [33]: 26.5 µM (inactive)
GI50 [34]: 30.1 µM (inactive)
GI50 [35]: > 100 µM (inactive)
GI50 [36]: 29 µM (inactive)
GI50 [37]: 21.9 µM (inactive)
GI50 [38]: 50.8 µM (inactive)
GI50 [40]: 43.4 µM (inactive)
GI50 [41]: 38.1 µM (inactive)
GI50 [42]: 37.3 µM (inactive)
GI50 [57]: 34.4 µM (inactive)
GI50 [43]: 18.2 µM (inactive)
GI50 [44]: 34.1 µM (inactive)
GI50 [45]: 54 µM (inactive)
GI50 [46]: 66.1 µM (inactive)
GI50 [47]: 61.5 µM (inactive)
GI50 [48]: 15.7 µM (inactive)
GI50 [58]: 36.1 µM (inactive)
GI50 [49]: 24.8 µM (inactive)
GI50 [50]: 33.3 µM (inactive)
GI50 [51]: 67 µM (inactive)
GI50 [52]: 33.4 µM (inactive)
GI50 [53]: 26 µM (inactive)
GI50 [54]: 30.6 µM (inactive)

C=C1C(=O)O[C@H]2C[C@@H]1[C@@H](O)[C@H](O)[C@@H](C)CCCC(C)=CCC[C@@]2(C)O
GI50 [1]: 15.8 µM (inactive)
GI50 [2]: 51.2 µM (inactive)
GI50 [3]: 35.1 µM (inactive)
GI50 [4]: 14.6 µM (inactive)
GI50 [5]: 10 µM (inactive)
GI50 [6]: 5.06 µM (inactive)
GI50 [55]: > 100 µM (inactive)
GI50 [7]: 7.03 µM (inactive)
GI50 [8]: 42.7 µM (inactive)
GI50 [9]: 54 µM (inactive)
GI50 [10]: 25.3 µM (inactive)
GI50 [11]: 16.1 µM (inactive)
GI50 [12]: 22.9 µM
GI50 [56]: 15.1 µM (inactive)
GI50 [13]: 24.3 µM (inactive)
GI50 [14]: 12.4 µM (inactive)
GI50 [16]: 18 µM (inactive)
GI50 [17]: 24.3 µM (inactive)
GI50 [18]: 5.55 µM (inactive)
GI50 [19]: 30.9 µM (inactive)
GI50 [20]: 18.5 µM (inactive)
GI50 [21]: 13.6 µM (inactive)
GI50 [22]: 10.1 µM (inactive)
GI50 [23]: 28 µM (inactive)
GI50 [24]: 17.7 µM (inactive)
GI50 [25]: 9.86 µM (inactive)
GI50 [26]: 4.84 µM (inactive)
GI50 [27]: 13 µM (inactive)
GI50 [29]: 18.1 µM (inactive)
GI50 [30]: 23 µM (inactive)
GI50 [31]: 4.24 µM (inactive)
GI50 [33]: 15.1 µM (inactive)
GI50 [34]: 21.9 µM (inactive)
GI50 [35]: 19.1 µM (inactive)
GI50 [36]: > 10 µM (inactive)
GI50 [37]: 19.9 µM (inactive)
GI50 [38]: 5.05 µM (inactive)
GI50 [39]: 22.7 µM (inactive)
GI50 [40]: 22.6 µM (inactive)
GI50 [41]: 54.7 µM (inactive)
GI50 [42]: 15.2 µM (inactive)
GI50 [57]: 25.6 µM (inactive)
GI50 [43]: 21.6 µM (inactive)
GI50 [44]: 14.3 µM (inactive)
GI50 [45]: 62.5 µM (inactive)
GI50 [46]: 17 µM (inactive)
GI50 [47]: > 100 µM (inactive)
GI50 [48]: 45.5 µM (inactive)
GI50 [59]: 39.7 µM (inactive)
GI50 [58]: > 10 µM (inactive)
GI50 [49]: 20.2 µM (inactive)
GI50 [50]: 14.9 µM (inactive)
GI50 [51]: 24.7 µM (inactive)
GI50 [52]: 15.2 µM (inactive)
GI50 [53]: 16.6 µM (inactive)
GI50 [54]: 14.8 µM (inactive)
